Patent US10626126B2, “Compounds” (Pulmocide Limited, priority 2016, dated 2020)

Key:
Assay type in all cases: cell-based
RSV A2 strain = assay: RSV A2 induced CPE in HEp2 cells; conditions: human respiratory syncytial virus; for IC50: HEp-2, 120 h, 5 days; for inhibition at 0.01 µg/mL: HEp-2, at 0.01 μg/mL
Procedure: (§1) HEp2 cells were seeded (10^3/well/50 μL) in 384-well plates (Catalogue number 353962, BD Falcon, Oxford, UK) in 5% FBS-DMEM (containing 2 mM L-glutamine and 1 mM sodium pyruvate) one day before infection. […] Simultaneously, test compounds (0.5 μL DMSO solution) were added to 100 μL of HEp2 cell culture with virus solution to provide a final DMSO solution of 0.5%. […] Sigma-Aldrich, Dorset, UK) was added to each well and the plate incubated for a further 6 hr (37° C./5% CO2). The fluorescence of each well [545 nm (excitation)/590 nm (emission)] was determined using a multi-scanner (Clariostar: BMG, Buckinghamshire, UK). The percentage inhibition for each well was calculated and the IC50, IC75 and IC90 values were calculated from the concentration-response curve generated for each test compound.

[1] = Cell viability: resazurin assay; conditions: human, HEp2 cells
Procedure: HEp2 cells were seeded in 384-well plates (10^3/well/50 μL; BD Falcon Ref 353962) in FBS DMEM (5%, containing 2 mM L-glutamine and 1 mM sodium pyruvate) one day before experimentation. Serum-free DMEM (50 μL) was added to test wells, while for control wells the media was removed and sterile water (100 μL) added. Test compounds (0.5 μL DMSO solution) were added to give a final DMSO concentration of 0.5%. HEp2 cells were incubated with each test compound for 5 days (37° C./5% CO2 in 2.5% FBS) and then resazurin stock solution (5 μL; 0.03%) was added to each well and the plate incubated for a further 6 hr (37° C./5% CO2). The fluorescence of each well at 545 nm (excitation) and 590 nm (emission) was determined using a multi-scanner (Clariostar: BMG Labtech). The percentage loss of cell viability was calculated for each well relative to vehicle (0.5% DMSO) treatment. Note that any apparent increase in cell viability associated with test compound treatment relative to vehicle is consequently tabulated as a negative percentage. Where appropriate, a CC50 value was calculated from the concentration-response curve generated from the concentration-response curve for each test compound.

RSV B Washington strain = assay: RSV B induced CPE in HEp2 cells; conditions: human respiratory syncytial virus; for IC50: HEp-2, 144 h, 6 days; for inhibition at 1 µg/mL: HEp-2, at 1 μg/mL; for inhibition at 0.1 µg/mL: HEp-2, at 0.1 μg/mL
Procedure: as §1

O=C(Nc1c(F)cccc1F)c1cc2c(s1)-c1sccc1N(C(=O)c1ccc(NC(=O)c3cc4ccccc4nc3N3CC4(CCOCC4)C3)cc1)CC2 [Example 27, 4-(4-(2-(7-oxa-2-azaspiro[3.5]nonan-2-yl)quinoline-3-carboxamido)benzoyl)-N-(2,6-difluorophenyl)-5,6-dihydro-4H-dithieno[3,2-b:2′,3′-d]azepine-8-carboxamide]
IC50 (RSV A2 strain): 0.63 nM | inhibition at 0.01 µg/mL (RSV A2 strain): 94% | CC50 at 5 days [1]: > 13100 nM | IC50 (RSV B Washington strain): 32 nM | inhibition at 1 µg/mL (RSV B Washington strain): 93%

O=C(Nc1c(F)cccc1F)c1cc2c(s1)-c1sccc1N(C(=O)c1ccc(NC(=O)c3cccnc3N3CCC4(CC3)COC4)cc1)CC2 [Example 29, 4-(4-(2-(2-oxa-7-azaspiro[3.5]nonan-7-yl)nicotinamido)benzoyl)-N-(2,6-difluorophenyl)-5,6-dihydro-4H-dithieno [3,2-b:2′,3′-d]azepine-8-carboxamide]
IC50 (RSV A2 strain): 3.6 nM | inhibition at 0.01 µg/mL (RSV A2 strain): 100% | CC50 at 5 days [1]: > 14000 nM | IC50 (RSV B Washington strain): 490 nM | inhibition at 1 µg/mL (RSV B Washington strain): 51%

[2H]c1c([2H])c(C(=O)N2CCc3cc(C(=O)Nc4c(F)cccc4F)sc3-c3sccc32)c([2H])c([2H])c1NC(=O)c1cc(C)cnc1N1CC2(CCOCC2)C1 [Example 3, N-(2,6-difluorophenyl)-4-(4-(5-methyl-2-(7-oxa-2-azaspiro[3.5]nonan-2-yl)nicotinamido)benz-y-2,3,5,6-d4)-5,6-dihydro-4H-dithieno[3,2-b:2′,3′-d]azepine-8-carboxamide]
IC50 (RSV A2 strain): 0.15 nM | inhibition at 0.01 µg/mL (RSV A2 strain): 95% | CC50 at 5 days [1]: > 13700 nM | IC50 (RSV B Washington strain): 14 nM | inhibition at 0.1 µg/mL (RSV B Washington strain): 100%

O=C(Nc1c(F)cccc1F)c1cc2c(s1)-c1sccc1N(C(=O)c1ccc(NC(=O)c3cc4sccc4nc3N3CC4(CCOCC4)C3)cc1F)CC2 [Example 28, 4-(4-(5-(7-oxa-2-azaspiro[3.5]nonan-2-yl)thieno[3,2-b]pyridine-6-carboxamido)-2-fluorobenzoyl)-N-(2,6-difluorophenyl)-5,6-dihydro-4H-dithieno[3,2-b:2′,3′-d] azepine-8-carboxamide]
IC50 (RSV A2 strain): 0.48 nM | inhibition at 0.01 µg/mL (RSV A2 strain): 89% | CC50 at 5 days [1]: > 12700 nM | IC50 (RSV B Washington strain): 15 nM | inhibition at 0.1 µg/mL (RSV B Washington strain): 92%

Cc1ccc(C(=O)Nc2ccc(C(=O)N3CCc4cc(C(=O)Nc5c(F)cccc5F)sc4-c4sccc43)cc2)c(N2CC3(CCOCC3)C2)n1 [Example 21, N-(2,6-difluorophenyl)-4-(4-(6-methyl-2-(7-oxa-2-azaspiro [3.5]nonan-2-yl)nicotinamido)benzoyl)-5,6-dihydro-4H-dithieno[3,2-b:2′,3′-d]azepine-8-carboxamide]
IC50 (RSV A2 strain): 0.37 nM | inhibition at 0.01 µg/mL (RSV A2 strain): 91% | CC50 at 5 days [1]: > 13800 nM | IC50 (RSV B Washington strain): 17 nM | inhibition at 0.1 µg/mL (RSV B Washington strain): 91%

Cc1cnc(N2CC3(CCOCC3)C2)c(C(=O)Nc2ccc(C(=O)N3CCc4cc(C(=O)Nc5c(F)cccc5F)sc4-c4sccc43)c(F)c2)c1 [Example 18, N-(2,6-difluorophenyl)-4-(2-fluoro-4-(5-methyl-2-(7-oxa-2-azaspiro[3.5]nonan-2-yl)nicotinamido)benzoyl)-5,6 dihydro-4H-dithieno[3,2-b:2′,3′-d]azepine-8-carboxamide]
IC50 (RSV A2 strain): 0.17 nM | inhibition at 0.01 µg/mL (RSV A2 strain): 100% | CC50 at 5 days [1]: > 13400 nM | IC50 (RSV B Washington strain): 14 nM | inhibition at 0.1 µg/mL (RSV B Washington strain): 92%

Cc1cccc(F)c1NC(=O)c1cc2c(s1)-c1sccc1N(C(=O)c1ccc(NC(=O)c3cc4c(nc3N3CC5(CCOCC5)C3)CCC4)cc1)CC2 [Example 24, 4-(4-(2-(7-oxa-2-azaspiro[3.5]nonan-2-yl)-6,7-dihydro-5H-cyclopenta[b]pyridine-3-carboxamido)benzoyl)-N-(2-fluoro-6-methylphenyl)-5,6-dihydro-4H-dithieno[3,2-b:2′,3′-d] azepine-8-carboxamide]
IC50 (RSV A2 strain): 0.54 nM | inhibition at 0.01 µg/mL (RSV A2 strain): 98% | CC50 at 5 days [1]: > 13400 nM | IC50 (RSV B Washington strain): 11 nM | inhibition at 0.1 µg/mL (RSV B Washington strain): 84%

O=C(Nc1c(F)cccc1F)c1cc2c(s1)-c1sccc1N(C(=O)c1ccc(NC(=O)c3cccnc3N3CC4(CCOCC4)C3)cc1F)CC2 [Example 7, 4-(4-(2-(7-oxa-2-azaspiro[3.5]nonan-2-yl)nicotinamido)-2-fluorobenzoyl)-N-(2,6-difluorophenyl)-5,6-dihydro-4H-dithieno[3,2-b:2′,3′-d]azepine-8-carboxamide]
IC50 (RSV A2 strain): 2.6 nM | inhibition at 0.01 µg/mL (RSV A2 strain): 87% | CC50 at 5 days [1]: > 13700 nM | IC50 (RSV B Washington strain): 97 nM | inhibition at 1 µg/mL (RSV B Washington strain): 82%

COc1cccc(F)c1NC(=O)c1cc2c(s1)-c1sccc1N(C(=O)c1ccc(NC(=O)c3cc(C)cnc3N3CC4(CCOCC4)C3)cc1)CC2 [Example 16, N-(2-fluoro-6-methoxyphenyl)-4-(4-(5-methyl-2-(7-oxa-2-azaspiro[3.5]nonan-2-yl)nicotinamido)benzoyl)-5,6-dihydro-4H-dithieno[3,2-b:2′,3′-d]azepine-8-carboxamide]
IC50 (RSV A2 strain): 0.18 nM | inhibition at 0.01 µg/mL (RSV A2 strain): 96% | CC50 at 5 days [1]: > 13600 nM | IC50 (RSV B Washington strain): 32 nM | inhibition at 0.1 µg/mL (RSV B Washington strain): 100%

Cc1cnc(N2CCC3(CC2)COC3)c(C(=O)Nc2ccc(C(=O)N3CCc4cc(C(=O)Nc5c(F)cccc5F)sc4-c4sccc43)cc2)c1 [Example 30, N-(2,6-difluorophenyl)-4-(4-(5-methyl-2-(2-oxa-7-azaspiro[3.5]nonan-7-yl)nicotinamido)benzoyl)-5,6-dihydro-4H-dithieno[3,2-b:2′,3′-d]azepine-8-carboxamide]
IC50 (RSV A2 strain): 0.42 nM | inhibition at 0.01 µg/mL (RSV A2 strain): 100% | CC50 at 5 days [1]: > 13800 nM | IC50 (RSV B Washington strain): 130 nM | inhibition at 1 µg/mL (RSV B Washington strain): 100%

Cc1cccc(F)c1NC(=O)c1cc2c(s1)-c1sccc1N(C(=O)c1ccc(NC(=O)c3cc4c(nc3N3CC5(CCOCC5)C3)CCOC4)cc1)CC2 [Example 26, N-(4-(8-((2-fluoro-6-methylphenyl)carbamoyl)-5,6-dihydro-4H-dithieno[3,2-b:2′,3′-d]azepine-4-carbonyl)phenyl)-2-(7-oxa-2-azaspiro[3.5]nonan-2-yl)-7,8-dihydro-5H-pyrano[4,3-b]pyridine-3-carboxamide]
IC50 (RSV A2 strain): 1 nM | inhibition at 0.01 µg/mL (RSV A2 strain): 98% | CC50 at 5 days [1]: > 13100 nM | IC50 (RSV B Washington strain): 17 nM | inhibition at 0.1 µg/mL (RSV B Washington strain): 93%

Cc1ccc(C(=O)Nc2ccc(C(=O)N3CCc4cc(C(=O)Nc5c(F)cccc5F)sc4-c4sccc43)c(F)c2)c(N2CC3(CCOCC3)C2)n1 [Example 5, N-(2,6-Difluorophenyl)-4-(2-fluoro-4-(6-methyl-2-(7-oxa-2-azaspiro[3.5]nonan-2-yl)nicotinamido)benzoyl)-5,6-dihydro-4H-dithieno[3,2-b:2′,3′-d]azepine-8-carboxamide]
IC50 (RSV A2 strain): 0.55 nM | inhibition at 0.01 µg/mL (RSV A2 strain): 89% | CC50 at 5 days [1]: > 13400 nM | IC50 (RSV B Washington strain): 19 nM | inhibition at 0.1 µg/mL (RSV B Washington strain): 97%

Cc1cnc(N2CC3(CCOCC3)C2)c(C(=O)Nc2ccc(C(=O)N3CCc4cc(C(=O)Nc5c(Cl)cccc5Cl)sc4-c4sccc43)cc2)c1 [Example 13, N-(2,6-dichlorophenyl)-4-(4-(5-methyl-2-(7-oxa-2-azaspiro [3.5]nonan-2-yl)nicotinamido)benzoyl)-5,6-dihydro-4H-dithieno[3,2-b:2′,3′-d]azepine-8-carboxamide]
IC50 (RSV A2 strain): 0.14 nM | inhibition at 0.01 µg/mL (RSV A2 strain): 77% | CC50 at 5 days [1]: > 13200 nM | IC50 (RSV B Washington strain): 1.2 nM | inhibition at 1 µg/mL (RSV B Washington strain): 80%

Cc1cnc(N2CC3(CCOCC3)C2)c(C(=O)Nc2ccc(C(=O)N3CCc4cc(C(=O)Nc5c(O)cccc5F)sc4-c4sccc43)cc2)c1 [Example 15, N-(2-fluoro-6-hydroxyphenyl)-4-(4-(5-methyl-2-(7-oxa-2-azaspiro[3.5]nonan-2-yl)nicotinamido)benzoyl)-5,6-dihydro-4H-dithieno[3,2-b:2′,3′-d]azepine-8-carboxamide]
IC50 (RSV A2 strain): 0.3 nM | inhibition at 0.01 µg/mL (RSV A2 strain): 100% | CC50 at 5 days [1]: > 13800 nM | IC50 (RSV B Washington strain): 86 nM | inhibition at 1 µg/mL (RSV B Washington strain): 90%

Cc1cnc(N2CC3(CCOCC3)C2)c(C(=O)Nc2ccc(C(=O)N3CCc4cc(C(=O)Nc5ccccc5F)sc4-c4sccc43)cc2)c1 [Example 9, N-(2-fluorophenyl)-4-(4-(5-methyl-2-(7-oxa-2-azaspiro[3.5]nonan-2-yl)nicotinamido)benzoyl)-5,6-dihydro-4H-dithieno[3,2-b:2′,3′-d]azepine-8-carboxamide]
IC50 (RSV A2 strain): 0.18 nM | inhibition at 0.01 µg/mL (RSV A2 strain): 100% | CC50 at 5 days [1]: > 14100 nM | IC50 (RSV B Washington strain): 54 nM | inhibition at 0.1 µg/mL (RSV B Washington strain): 100%
